According to publication PMC7987348, “Structural basis for human TRPC5 channel inhibition by two distinct inhibitors” (eLife, 2021):
Changes are numbered by the printed parent chain. pIC50: −log10 of the molar value. Read-outs that look alike come from different tables or passages of the source.

Key:
[1] = test system: TRPC3/6; parameters: method as in Richter et al., 2014; details: ref Richter et al., 2014; cited from earlier work
[2] = molecular target: T1, hTRPC5 F414M (Homo sapiens, UniProt Q9UL62, F414M); assay: FLIPR calcium assay, hTRPC5 mutant F414M; type: cell-based
T1 construct: We use full-length nontagged hTRPC5 construct for FLIPR assay unless indicated otherwise; expressed in transfected cells; host or cells: AD293
T1 sequence (Q9UL62 1-973 F414M): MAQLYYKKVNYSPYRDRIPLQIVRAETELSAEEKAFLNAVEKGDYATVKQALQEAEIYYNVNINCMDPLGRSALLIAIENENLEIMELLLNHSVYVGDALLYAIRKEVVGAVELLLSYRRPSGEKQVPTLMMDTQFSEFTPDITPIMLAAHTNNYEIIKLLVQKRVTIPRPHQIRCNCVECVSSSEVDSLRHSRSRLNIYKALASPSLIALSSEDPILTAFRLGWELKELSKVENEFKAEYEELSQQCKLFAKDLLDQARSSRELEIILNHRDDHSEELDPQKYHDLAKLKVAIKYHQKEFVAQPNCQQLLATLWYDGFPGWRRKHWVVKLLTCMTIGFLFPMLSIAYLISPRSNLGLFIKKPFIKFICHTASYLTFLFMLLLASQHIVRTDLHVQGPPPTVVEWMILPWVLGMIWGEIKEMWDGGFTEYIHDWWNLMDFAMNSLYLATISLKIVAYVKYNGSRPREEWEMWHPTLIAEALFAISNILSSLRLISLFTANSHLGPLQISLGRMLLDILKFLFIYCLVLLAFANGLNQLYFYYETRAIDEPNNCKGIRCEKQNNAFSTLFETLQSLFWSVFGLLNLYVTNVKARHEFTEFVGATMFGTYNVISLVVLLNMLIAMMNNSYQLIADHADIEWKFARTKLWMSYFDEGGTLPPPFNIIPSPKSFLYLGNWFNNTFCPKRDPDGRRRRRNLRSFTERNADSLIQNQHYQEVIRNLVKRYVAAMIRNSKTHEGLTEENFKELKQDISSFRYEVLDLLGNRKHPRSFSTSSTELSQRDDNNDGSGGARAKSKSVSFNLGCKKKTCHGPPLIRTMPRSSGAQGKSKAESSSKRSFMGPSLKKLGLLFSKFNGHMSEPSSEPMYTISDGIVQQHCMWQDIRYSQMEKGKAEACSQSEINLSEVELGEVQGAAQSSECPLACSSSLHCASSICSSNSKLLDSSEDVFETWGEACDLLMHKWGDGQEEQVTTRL
Experimental: (§1) […]. Then the suspended cell culture was further diluted for 5.4- to 7-fold with culture medium and seeded onto black well, clear bottom, poly-D-lysine-coated 96-well plate (Costar) and cultured overnight. We use full-length nontagged hTRPC5 construct for FLIPR assay unless indicated otherwise. hTRPC5 plasmids were transfected into AD293 cells (60-80% confluence) with PEI. 30–40 hr post-transfection, culture medium was discarded and cells were incubated with 50 μl per well of 4 μM Rhod-2/AM (AAT Bioquest) in TARODES’s buffer (10 mM HEPES, 150 mM NaCl, 4 mM KCl, 2 mM MgCl2, 2 mM CaCl2, 11 mM glucose, pH 7.4) supplemented with 0.02% Pluronic F-127 (Sigma) for 5 min in dark at room temperature. Then dye was removed and replaced with 50 μl of TARODE’s buffer per well. The application of compounds and detection of intracellular calcium elevation were performed using FLIPR-TETRA (Molecular Devices) at room temperature (25–27°C). Fluorescence signals were read with excitation/emission at 510–545/565–625 nm.
(§2) […]. Then fluorescence was measured for 300 s.
(§3) Buffer A contains 2× concentration of working concentration of inhibitor. […]. for control-Min, both buffer A and buffer B were replaced by TARODE’s buffer.
(§4) […]; the average of fluorescence value of last 20 time points was considered as the ‘end fluorescence’. The value of ‘end fluorescence’ minus ‘start fluorescence’ was considered as ‘signal value’ for each well. […].
(§5) Three independent experiments were performed on different days (biological replicates), with each experiment containing three replicates (technique replicates).

[3] = molecular target: T2, hTRPC5 N443L (Homo sapiens, UniProt Q9UL62, N443L); assay: FLIPR calcium assay, hTRPC5 mutant N443L; type: cell-based
T2 construct: We use full-length nontagged hTRPC5 construct for FLIPR assay unless indicated otherwise; expressed in transfected cells; host or cells: AD293
T2 sequence (Q9UL62 1-973 N443L): T1 sequence (Q9UL62 1-973 F414M) with M414F, N443L
Experimental: as §1, §2, §3, §4, §5

[4] = CMZ, 14 mM extracellular calcium, read-out: IC50
[5] = CMZ, log of IC50 in μM, logIC50 ± SEM, n = 3, read-out: LogIC50 (converted)
[6] = read-out: normalized RFU (% WT), Clemizole 0.400391 μM, 14 mM Ca2+, each column one independent experiment
[7] = read-out: normalized RFU (% WT), Clemizole 0.800781 μM, 14 mM Ca2+, each column one independent experiment
[8] = read-out: normalized RFU (% WT), Clemizole 6.40625 μM, 14 mM Ca2+, each column one independent experiment

## Clc1ccc(Cn2c(CN3CCCC3)nc3ccccc32)cc1 [CMZ, clemizole]
[1]
  fold more potent against TRPC5 than TRPC3/6: 10 fold
[2]; CMZ
  Hill slope: −1.45
[2]; [4]
  pIC50: 5.67
[2]; [5]
  IC50: 2.14 µM
[2]; read-out: normalized RFU (% WT), Clemizole 0.200195 μM, 14 mM Ca2+, each column one independent experiment
  remaining activity at 0.200195 µM: 130%
[2]; [6]
  remaining activity at 0.400391 µM: 116%
[2]; [7]
  remaining activity at 0.800781 µM: 107%
[2]; [8]
  remaining activity at 6.40625 µM: 32.1%
[3]; CMZ
  Hill slope: −2.42
[3]; [4]
  pIC50: 4.98
[3]; [5]
  IC50: 10.5 µM
[3]; [6]
  remaining activity at 0.400391 µM: 89.5%
[3]; [7]
  remaining activity at 0.800781 µM: 64.6%
[3]; read-out: normalized RFU (% WT), Clemizole 3.20312 μM, 14 mM Ca2+, each column one independent experiment
  remaining activity at 3.20312 µM: 56.3%
[3]; [8]
  remaining activity at 6.40625 µM: 52.8%
